According to ChEMBL document CHEMBL1909046, “DrugMatrix in vitro pharmacology data”:
pIC50, pKi: −log10 of the molar value.

System: not listed separately
Test: DRUGMATRIX: Serotonin (5-Hydroxytryptamine) 5-HT3 radioligand binding (ligand: [3H] GR-65630)
Type: cell membranes, Membrane
Conditions: hek293; Not Active = under 50% inhibition at 10 µM

Structure (SMILES)	IC50	Ki
Cc1ccc(N(CC2=NCCN2)c2cccc(O)c2)cc1 [PHENTOLAMINE]	Not Active	Not Active
CC(C)(Oc1ccc(Cl)cc1)C(=O)O [CLOFIBRIC ACID]	Not Active	Not Active
CC1(C)O[C@@H]2C[C@H]3[C@@H]4CCC5=CC(=O)CC[C@]5(C)[C@@]4(F)[C@@H](O)C[C@]3(C)[C@]2(C(=O)CCl)O1 [HALCINONIDE]	Not Active	Not Active
NC(=O)N1c2ccccc2CCc2ccccc21	Not Active	Not Active
C[C@H](CS)C(=O)N1CCC[C@H]1C(=O)O [CAPTOPRIL]	Not Active	Not Active
CCOC(=O)C1=C(COCCN)NC(C)=C(C(=O)OC)C1c1ccccc1Cl (configuration not stated) [AMLODIPINE]	Not Active	Not Active
Cc1ccc(-c2cc(C(F)(F)F)nn2-c2ccc(S(N)(=O)=O)cc2)cc1 [CELECOXIB]	Not Active	Not Active

Same assay, conditions: hek293; Not Active = under 50% inhibition at 10 µM; read-out: IC50

Structure (SMILES)	pIC50
CN(C)CCCN1c2ccccc2Sc2ccc(Cl)cc21 [CHLORPROMAZINE]	5.13

Same assay, conditions: hek293; Not Active = under 50% inhibition at 10 µM; read-out: Ki

Structure (SMILES)	pKi
CN(C)CCCN1c2ccccc2Sc2ccc(Cl)cc21 [CHLORPROMAZINE]	5.78

Target: 5-hydroxytryptamine receptor 6 (Homo sapiens, UniProt P50406); further: in other assays of this panel Not Active means under 50% inhibition at 10 µM
Type: cell membranes, HeLa, Membrane
Conditions: hela

Sequence of 5-hydroxytryptamine receptor 6 (P50406 whole entry): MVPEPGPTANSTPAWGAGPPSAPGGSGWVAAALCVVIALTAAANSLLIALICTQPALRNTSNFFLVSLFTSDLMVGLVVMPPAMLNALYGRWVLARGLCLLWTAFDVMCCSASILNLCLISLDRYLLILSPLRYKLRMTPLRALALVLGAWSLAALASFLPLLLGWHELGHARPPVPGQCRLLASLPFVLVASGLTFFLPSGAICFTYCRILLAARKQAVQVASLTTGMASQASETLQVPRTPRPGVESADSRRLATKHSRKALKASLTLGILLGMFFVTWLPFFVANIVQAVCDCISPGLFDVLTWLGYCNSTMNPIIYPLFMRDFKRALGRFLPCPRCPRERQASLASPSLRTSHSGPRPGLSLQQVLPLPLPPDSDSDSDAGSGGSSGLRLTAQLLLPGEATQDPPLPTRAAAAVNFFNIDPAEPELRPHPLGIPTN

Structure (SMILES)	IC50
Cc1ccc(N(CC2=NCCN2)c2cccc(O)c2)cc1 [PHENTOLAMINE]	Not Active
CC(C)(Oc1ccc(Cl)cc1)C(=O)O [CLOFIBRIC ACID]	Not Active
CC1(C)O[C@@H]2C[C@H]3[C@@H]4CCC5=CC(=O)CC[C@]5(C)[C@@]4(F)[C@@H](O)C[C@]3(C)[C@]2(C(=O)CCl)O1 [HALCINONIDE]	Not Active
NC(=O)N1c2ccccc2CCc2ccccc21	Not Active
C[C@H](CS)C(=O)N1CCC[C@H]1C(=O)O [CAPTOPRIL]	Not Active
Cc1ccc(-c2cc(C(F)(F)F)nn2-c2ccc(S(N)(=O)=O)cc2)cc1 [CELECOXIB]	Not Active

Target: T1, Vasoactive intestinal polypeptide receptor 1 (Homo sapiens, UniProt P32241); further: in other assays of this panel Not Active means under 50% inhibition at 10 µM
T1 sequence (P32241 whole entry): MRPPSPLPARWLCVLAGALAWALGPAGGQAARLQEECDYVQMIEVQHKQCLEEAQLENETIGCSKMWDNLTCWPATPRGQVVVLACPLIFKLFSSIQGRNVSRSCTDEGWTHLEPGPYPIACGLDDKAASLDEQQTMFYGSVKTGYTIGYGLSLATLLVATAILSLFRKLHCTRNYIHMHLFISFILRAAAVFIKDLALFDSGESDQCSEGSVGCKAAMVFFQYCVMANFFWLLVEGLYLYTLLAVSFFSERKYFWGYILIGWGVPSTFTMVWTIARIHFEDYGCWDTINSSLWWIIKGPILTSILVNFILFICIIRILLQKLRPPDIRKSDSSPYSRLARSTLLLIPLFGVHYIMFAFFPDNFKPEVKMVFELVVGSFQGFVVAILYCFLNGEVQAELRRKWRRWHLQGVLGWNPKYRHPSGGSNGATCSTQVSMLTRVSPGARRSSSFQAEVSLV
Type: cell membranes, Membrane
Conditions: ht-29

Structure (SMILES)	IC50
Cc1ccc(N(CC2=NCCN2)c2cccc(O)c2)cc1 [PHENTOLAMINE]	Not Active
CC(C)(Oc1ccc(Cl)cc1)C(=O)O [CLOFIBRIC ACID]	Not Active
CC1(C)O[C@@H]2C[C@H]3[C@@H]4CCC5=CC(=O)CC[C@]5(C)[C@@]4(F)[C@@H](O)C[C@]3(C)[C@]2(C(=O)CCl)O1 [HALCINONIDE]	Not Active
NC(=O)N1c2ccccc2CCc2ccccc21	Not Active
C[C@H](CS)C(=O)N1CCC[C@H]1C(=O)O [CAPTOPRIL]	Not Active
CN(C)CCCN1c2ccccc2Sc2ccc(Cl)cc21 [CHLORPROMAZINE]	Not Active
CCOC(=O)C1=C(COCCN)NC(C)=C(C(=O)OC)C1c1ccccc1Cl (configuration not stated) [AMLODIPINE]	Not Active
Cc1ccc(-c2cc(C(F)(F)F)nn2-c2ccc(S(N)(=O)=O)cc2)cc1 [CELECOXIB]	Not Active

Target: Carbonic anhydrase 2 (Homo sapiens, UniProt P00918)
Test: DRUGMATRIX: Carbonic Anhydrase II enzyme inhibition (substrate: 4-Nitrophenyl acetate (4-NPA))
Type: tissue-based, Erythrocyte
Conditions: erythrocyte; Not Active = under 50% inhibition at 10 µM

Structure (SMILES)	IC50
Cc1ccc(N(CC2=NCCN2)c2cccc(O)c2)cc1 [PHENTOLAMINE]	Not Active
CC(C)(Oc1ccc(Cl)cc1)C(=O)O [CLOFIBRIC ACID]	Not Active
CC1(C)O[C@@H]2C[C@H]3[C@@H]4CCC5=CC(=O)CC[C@]5(C)[C@@]4(F)[C@@H](O)C[C@]3(C)[C@]2(C(=O)CCl)O1 [HALCINONIDE]	Not Active
NC(=O)N1c2ccccc2CCc2ccccc21	Not Active
C[C@H](CS)C(=O)N1CCC[C@H]1C(=O)O [CAPTOPRIL]	Not Active
CN(C)CCCN1c2ccccc2Sc2ccc(Cl)cc21 [CHLORPROMAZINE]	Not Active
CCOC(=O)C1=C(COCCN)NC(C)=C(C(=O)OC)C1c1ccccc1Cl (configuration not stated) [AMLODIPINE]	Not Active

System: not listed separately
Test: DRUGMATRIX: GABAA, Muscimol, Central radioligand binding (ligand: [3H] Muscimol)
Type: cell membranes, Rattus norvegicus, Wistar, Brain, Membrane
Conditions: Not Active = under 50% inhibition at 10 µM

Structure (SMILES)	IC50	Ki
Cc1ccc(N(CC2=NCCN2)c2cccc(O)c2)cc1 [PHENTOLAMINE]	Not Active	Not Active
CC(C)(Oc1ccc(Cl)cc1)C(=O)O [CLOFIBRIC ACID]	Not Active	Not Active
CC1(C)O[C@@H]2C[C@H]3[C@@H]4CCC5=CC(=O)CC[C@]5(C)[C@@]4(F)[C@@H](O)C[C@]3(C)[C@]2(C(=O)CCl)O1 [HALCINONIDE]	Not Active	Not Active
NC(=O)N1c2ccccc2CCc2ccccc21	Not Active	Not Active
C[C@H](CS)C(=O)N1CCC[C@H]1C(=O)O [CAPTOPRIL]	Not Active	Not Active
CN(C)CCCN1c2ccccc2Sc2ccc(Cl)cc21 [CHLORPROMAZINE]	Not Active	Not Active
CCOC(=O)C1=C(COCCN)NC(C)=C(C(=O)OC)C1c1ccccc1Cl (configuration not stated) [AMLODIPINE]	Not Active	Not Active
Cc1ccc(-c2cc(C(F)(F)F)nn2-c2ccc(S(N)(=O)=O)cc2)cc1 [CELECOXIB]	Not Active	Not Active

Target: T2, Muscarinic acetylcholine receptor M4 (Homo sapiens, UniProt P08173); further: in other assays of this panel Not Active means under 50% inhibition at 10 µM
T2 sequence (P08173 whole entry): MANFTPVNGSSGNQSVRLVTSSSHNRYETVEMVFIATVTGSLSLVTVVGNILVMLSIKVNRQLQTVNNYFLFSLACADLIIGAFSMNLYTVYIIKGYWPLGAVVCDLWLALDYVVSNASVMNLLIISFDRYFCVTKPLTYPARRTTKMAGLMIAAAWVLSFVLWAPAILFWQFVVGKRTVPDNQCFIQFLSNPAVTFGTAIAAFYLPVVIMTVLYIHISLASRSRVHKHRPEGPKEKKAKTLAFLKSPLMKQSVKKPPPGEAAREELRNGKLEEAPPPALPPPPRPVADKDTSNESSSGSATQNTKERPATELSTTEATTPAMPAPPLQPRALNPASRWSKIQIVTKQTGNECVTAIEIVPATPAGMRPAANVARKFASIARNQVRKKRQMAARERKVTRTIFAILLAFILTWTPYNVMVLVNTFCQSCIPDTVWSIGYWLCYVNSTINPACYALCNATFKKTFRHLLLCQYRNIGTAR
Type: cell membranes, CHO-K1, Membrane
Conditions: cho-k1

Structure (SMILES)	IC50
Cc1ccc(N(CC2=NCCN2)c2cccc(O)c2)cc1 [PHENTOLAMINE]	Not Active
CC(C)(Oc1ccc(Cl)cc1)C(=O)O [CLOFIBRIC ACID]	Not Active
CC1(C)O[C@@H]2C[C@H]3[C@@H]4CCC5=CC(=O)CC[C@]5(C)[C@@]4(F)[C@@H](O)C[C@]3(C)[C@]2(C(=O)CCl)O1 [HALCINONIDE]	Not Active
NC(=O)N1c2ccccc2CCc2ccccc21	Not Active
C[C@H](CS)C(=O)N1CCC[C@H]1C(=O)O [CAPTOPRIL]	Not Active
CCOC(=O)C1=C(COCCN)NC(C)=C(C(=O)OC)C1c1ccccc1Cl (configuration not stated) [AMLODIPINE]	Not Active
Cc1ccc(-c2cc(C(F)(F)F)nn2-c2ccc(S(N)(=O)=O)cc2)cc1 [CELECOXIB]	Not Active

Target: T3, Angiotensin-converting enzyme (Oryctolagus cuniculus, UniProt P12822);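 further: enzymatic inhibition of angiotensin-converting enzyme measured with FAPGG as the substrate; in other assays of this panel Not Active means under 50% inhibition at 10 µM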
T3 sequence (P12822 whole entry): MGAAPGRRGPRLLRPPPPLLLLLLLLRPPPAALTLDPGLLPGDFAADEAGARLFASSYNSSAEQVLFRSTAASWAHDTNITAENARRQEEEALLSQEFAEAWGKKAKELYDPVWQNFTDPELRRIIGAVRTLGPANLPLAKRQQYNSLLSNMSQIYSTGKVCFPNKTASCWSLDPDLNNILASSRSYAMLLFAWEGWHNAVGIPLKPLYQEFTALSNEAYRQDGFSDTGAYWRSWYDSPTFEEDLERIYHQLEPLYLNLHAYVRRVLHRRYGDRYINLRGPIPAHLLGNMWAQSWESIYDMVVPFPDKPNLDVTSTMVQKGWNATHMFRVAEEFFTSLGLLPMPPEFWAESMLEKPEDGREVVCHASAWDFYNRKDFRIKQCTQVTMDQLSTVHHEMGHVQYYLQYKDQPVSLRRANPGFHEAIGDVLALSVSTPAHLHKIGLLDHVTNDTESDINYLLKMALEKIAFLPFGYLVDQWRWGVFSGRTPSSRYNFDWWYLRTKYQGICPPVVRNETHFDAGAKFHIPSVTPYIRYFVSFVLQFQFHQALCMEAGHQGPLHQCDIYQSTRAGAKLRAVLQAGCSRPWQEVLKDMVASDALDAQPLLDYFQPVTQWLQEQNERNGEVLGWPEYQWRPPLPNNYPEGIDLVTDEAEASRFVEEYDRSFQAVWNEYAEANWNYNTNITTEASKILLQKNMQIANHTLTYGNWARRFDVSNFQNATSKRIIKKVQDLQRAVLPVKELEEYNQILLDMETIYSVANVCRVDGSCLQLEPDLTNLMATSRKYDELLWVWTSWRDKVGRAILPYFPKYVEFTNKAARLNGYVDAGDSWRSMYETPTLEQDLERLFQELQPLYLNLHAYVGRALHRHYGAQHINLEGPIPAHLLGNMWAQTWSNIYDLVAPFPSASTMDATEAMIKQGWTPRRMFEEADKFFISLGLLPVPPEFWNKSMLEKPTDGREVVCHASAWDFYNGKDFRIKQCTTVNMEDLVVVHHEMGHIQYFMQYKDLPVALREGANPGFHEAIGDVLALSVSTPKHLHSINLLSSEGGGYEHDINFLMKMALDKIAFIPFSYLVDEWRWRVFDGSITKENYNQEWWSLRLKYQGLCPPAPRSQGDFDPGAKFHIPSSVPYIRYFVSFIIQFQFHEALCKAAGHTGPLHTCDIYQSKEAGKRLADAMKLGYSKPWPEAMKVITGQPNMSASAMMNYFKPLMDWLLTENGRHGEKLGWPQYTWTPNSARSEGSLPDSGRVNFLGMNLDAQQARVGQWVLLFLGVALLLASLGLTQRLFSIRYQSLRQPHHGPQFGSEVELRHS
Type: tissue-based, Lung
Conditions: not given

Structure (SMILES)	IC50
Cc1ccc(N(CC2=NCCN2)c2cccc(O)c2)cc1 [PHENTOLAMINE]	Not Active
CC(C)(Oc1ccc(Cl)cc1)C(=O)O [CLOFIBRIC ACID]	Not Active
CC1(C)O[C@@H]2C[C@H]3[C@@H]4CCC5=CC(=O)CC[C@]5(C)[C@@]4(F)[C@@H](O)C[C@]3(C)[C@]2(C(=O)CCl)O1 [HALCINONIDE]	Not Active
NC(=O)N1c2ccccc2CCc2ccccc21	Not Active
CN(C)CCCN1c2ccccc2Sc2ccc(Cl)cc21 [CHLORPROMAZINE]	Not Active
CCOC(=O)C1=C(COCCN)NC(C)=C(C(=O)OC)C1c1ccccc1Cl (configuration not stated) [AMLODIPINE]	Not Active
Cc1ccc(-c2cc(C(F)(F)F)nn2-c2ccc(S(N)(=O)=O)cc2)cc1 [CELECOXIB]	Not Active
